Reference: US12036312B2, “Non-aqueous topical compositions comprising a halogenated salicylanilide” (priority 2016, dated 2024)
In brackets after ≈: the same amount, converted by molar mass. Read-outs that look alike come from different tables or passages of the source.

Legend:
S. aureus = assay: Minimum inhibitory concentration (MIC) assay, Example 1, S. aureus strains; type: cell-based; conditions: Staphylococcus aureus
Source text: The methicillin-resistant S. aureus (MRSA) 01 strain was used as the primary test microorganism as a representative bacteria commonly found in skin infections. This strain is a community-acquired MRSA clinical isolate of USA 300 type, from a skin abscess.
Twenty-one other MRSA and methicillin-sensitive S. aureus strains, and 4 Streptococcus pyogenes strains, were also included in the study (Table 2). These covered fusidic acid- and mupirocin-resistant strains, these two types of resistance being of clinical relevance.
Strains were conserved in Luria Bertani (LB) Broth (S. aureus) or Brain Heart Infusion (BHI) (S. pyogenes) supplemented with glycerol 15% (v/v) at −80° C., and reactivated by isolation on LB (S. aureus) or BHI (S. pyogenes) agar plates. Strains were cultivated in Mueller Hinton (MH) Broth-cation adjusted (S. aureus) supplemented with lysed horse blood 2.5% (v/v) (S. pyogenes). All strains were cultivated at 37° C., aerobically for S. aureus strains.
Bacterial cultures were stopped in their exponential growth phase and plates were inoculated with the approximate concentration of 10^3 cells per well. Plates were incubated at 37° C. for 18 hours (S. aureus) or 24 hours (S. pyogenes). Optical density at a wavelength of 600 nm was measured at the end of the incubation time. […] Experiments were performed at least as triplicate biological replicates with all strains.

MRSA 01 [1] = assay: Time-kill assay; type: cell-based, Staphylococcus aureus; conditions: initial inoculum 7 log10 cfu/ml, niclosamide 4 μg/ml [MIC×10]
Procedure: This assay was performed in 20 ml of medium. It included a negative control (medium without bacteria), a positive control (bacteria grown without niclosamide) and the assay (bacteria grown with niclosamide). […] This experiment was performed with the primary test microorganism indicated above.
The overnight culture was stopped and OD600 was measured. Culture was then diluted in indicated medium to obtain an OD600 of 0.25 in order to have about 5×10^8 cfu/ml. Two hundred μl of this diluted culture were then added in all conditions except in the negative control. Initial bacterial concentration was about 5×10^6 cfu/ml. Tubes were incubated aerobically at 37° C. for 24 hours.
Bacteria were enumerated before the incubation, after 30 minutes, 1, 2, 4, 8 and 24 hours of incubation by serial dilutions in NaCl 0.9% and plating on LB agar, with 2 plates per dilution. Plates were incubated at 37° C. and colonies enumerated after 24 hours.

S. pyogenes = assay: MIC assay, Example 2, S. pyogenes strains (in BHI); type: cell-based, Streptococcus pyogenes; conditions: 4 strains
Procedure: Two-hundred-four other MRSA and methicillin-sensitive S. aureus strains, and 4 Streptococcus pyogenes strains, were also included in the study. These covered fusidic acid- and mupirocin-resistant strains, these two types of resistance being of clinical relevance.
Strains were conserved in Luria Bertani (LB) Broth (S. aureus) or Brain Heart Infusion (BHI) (S. pyogenes) supplemented with glycerol 15% (v/v) at −80° C., and reactivated by isolation on LB (S. aureus) or BHI (S. pyogenes) agar plates. Strains were cultivated in Mueller Hinton (MH) Broth-cation adjusted (S. aureus) or BHI (S. pyogenes). All strains were cultivated aerobically (microaerobically for S. pyogenes strains) at 37° C.
Bacterial cultures were stopped in their exponential growth phase and plates were inoculated with the approximate concentration of 5×10^5 cells per well. Plates were incubated at 37° C. for 18 hours (S. aureus) or 24 hours (S. pyogenes). Optical density at a wavelength of 600 nm was measured at the end of the incubation time.

MRSA 01 [2] = assay: Effect of pH on the antibacterial activity (MIC in pH-adjusted Mueller-Hinton Broth); type: cell-based, Staphylococcus aureus; conditions: for MIC: Staphylococcus aureus, MRSA
Procedure: Chosen for its relevance regarding bacterial skin infections, the methicillin-resistant S. aureus (MRSA) 01 strain was used. This strain is a community-acquired MRSA clinical isolate of USA 300 type, from a skin abscess.
This strain was conserved in Luria Bertani (LB) Broth supplemented with glycerol 15% (v/v) at −80° C., and reactivated by isolation on LB agar plates. It was then cultivated aerobically in Mueller Hinton (MH) Broth-cation adjusted at 37° C.
The pH of Mueller-Hinton Broth cation-adjusted was adjusted with HCl 2M to 7, 6.5, 6, 5.5, 5, 4.5 and […]. Ten ml of medium for each pH were prepared. The pH of non-adjusted MHBII was equal to 7.4.
Each pH-adjusted samples were filtered on 0.2 μm filters before being used for the MIC determination assay.
Bacterial culture was stopped in its exponential growth phase and plates were inoculated with the approximate concentration of 5×10^5 cells per well. Plates were incubated at 37° C. for 18 hours (S. aureus). Optical density at a wavelength of 600 nm was measured at the end of the incubation time.
The experiment was performed in triple biological replicates.

[3] = Mini-pig PK: niclosamide concentration in plasma; type: in vivo, Göttingen SPF mini-pigs; conditions: mini-pigs, day 28, dermal application of the formulations
Procedure: The study was performed in 3 male and 3 female Göttingen SPF mini-pigs from Ellegaard Göttingen Mini-pigs A/S, DK-4261 Dalmose, Denmark. At the start of the acclimatization period, the animals were approximately 6 months old and the body weight was 12.1 to 13.4 kg. An acclimatization period of at least 1 week was allowed, during which the animals were observed daily.
All test fields were semi-occluded with Mefix® (Mölnlycke Health Care, Sweden), allowing the sites to “breathe” while keeping the test substance in place. The Mefix® was kept in place with adhesive tape (Tensoplast, BSN medical, Germany) for 6 hours±30 minutes after application to ensure that the compounds were absorbed into the skin.

[4] = published literature values; cited from earlier work
P. aeruginosa = conditions: Imperi et al. 2013, cited from earlier work

SMILES: O=C(Nc1ccc([N+](=O)[O-])cc1Cl)c1cc(Cl)ccc1O [Niclosamide, niclosamide]
- MIC (S. aureus; MRSA, * tested against one strain: MRSA 01, read-out: Mic100 S. aureus): ≤ 0.4 µg/mL
- MIC (S. aureus; MRSA, strain MRSA 01, read-out: MIC): 0.4 µg/mL (≈ 1.22 µM)
- MIC (S. aureus; MRSA, strain MRSA 02, read-out: MIC): 0.2 µg/mL (≈ 0.611 µM)
- MIC (S. aureus; MRSA, strain MRSA 03*, read-out: MIC): 0.4 µg/mL (≈ 1.22 µM)
- MIC (S. aureus; MRSA, strain MRSA 04, read-out: MIC): 0.4 µg/mL (≈ 1.22 µM)
- MIC (S. aureus; MRSA, strain MRSA 05, read-out: MIC): 0.2 µg/mL (≈ 0.611 µM)
- MIC (S. aureus; MRSA, strain MRSA 06, read-out: MIC): 0.4 µg/mL (≈ 1.22 µM)
- MIC (S. aureus; MRSA, strain MRSA 07, read-out: MIC): 0.2 µg/mL (≈ 0.611 µM)
- MIC (S. aureus; MRSA, strain MRSA 08*, read-out: MIC): 0.4 µg/mL (≈ 1.22 µM)
- MIC (S. aureus; MRSA, strain MRSA 09, read-out: MIC): 0.2 µg/mL (≈ 0.611 µM)
- MIC (S. aureus; MRSA, strain MRSA 10, read-out: MIC): 0.4 µg/mL (≈ 1.22 µM)
- MIC (S. aureus; MRSA, strain MRSA 11, read-out: MIC): 0.1 µg/mL (≈ 0.306 µM)
- MIC (S. aureus; MRSA, strain MRSA 12*, read-out: MIC): 0.4 µg/mL (≈ 1.22 µM)
- MIC (S. aureus; MRSA, strain MRSA 13*, read-out: MIC): 0.4 µg/mL (≈ 1.22 µM)
- MIC (S. aureus; MRSA, strain MRSA 14*, read-out: MIC): 0.4 µg/mL (≈ 1.22 µM)
- MIC (S. aureus; MRSA, strain MRSA 15*, read-out: MIC): 0.2 µg/mL (≈ 0.611 µM)
- MIC (S. aureus; MRSA, strain MRSA 16*, read-out: MIC): 0.2 µg/mL (≈ 0.611 µM)
- MIC (S. aureus; MRSA, strain MRSA 17*, read-out: MIC): 0.2 µg/mL (≈ 0.611 µM)
- MIC (S. aureus; MSSA, strain MSSA 01*, read-out: MIC): 0.4 µg/mL (≈ 1.22 µM)
- MIC (S. aureus; MSSA, strain MSSA 02*, read-out: MIC): 0.4 µg/mL (≈ 1.22 µM)
- MIC (S. aureus; NEWMAN, strain Newman, read-out: MIC): 0.2 µg/mL (≈ 0.611 µM)
- MIC (S. aureus; strain EEFIC 01*, read-out: MIC): 0.4 µg/mL (≈ 1.22 µM)
- MIC (S. aureus; strain EEFIC 02*, read-out: MIC): 0.2 µg/mL (≈ 0.611 µM)
- bactericidal or bacteriostatic effect (MRSA 01 [1]): bacteriostatic effect
- MIC distribution: percentage of Streptococcus pyogenes strains (S. pyogenes; MIC 0.0625 μg/ml): 25%
- MIC distribution: percentage of Streptococcus pyogenes strains (S. pyogenes; MIC 0.5 μg/ml): 25% (1/4)
- MIC distribution: percentage of Streptococcus pyogenes strains (S. pyogenes; MIC […]): 25% (1/4)
- MIC (MRSA 01 [2]; MRSA 01, pH 7.0 (actual pH 7.071), Replicate 2): 0.125 µg/mL (≈ 0.382 µM)
- MIC (MRSA 01 [2]; pH 7.4, MRSA 01, pH not adjusted (actual pH 7.4), Replicate 1): 0.5 µg/mL (≈ 1.53 µM)
- MIC (MRSA 01 [2]; pH 7.4, MRSA 01, pH not adjusted (actual pH 7.4), Replicate 3): 0.5 µg/mL (≈ 1.53 µM)
- inhibitory activity against MRSA 01 as a function of pH (MRSA 01 [2]; pH-adjusted Mueller-Hinton Broth): increased when pH was decreased
- concentration in the plasma [3]: less than 0.651 ng/mL
- LD50 mice p.o [4]: >1500 mg/kg
- effect on growth of P. aeruginosa (P. aeruginosa): does not affect the growth of P. aeruginosa
- concentration at which some inhibition was detected (quorum sensing) (P. aeruginosa; P. aeruginosa): 1 µM
- concentration required for optimal activity (quorum sensing) (P. aeruginosa; P. aeruginosa): 20 µM
